Measurements taken from patent publication US12576040B2, “Ionizable lipids and methods of manufacture and use thereof” (priority 2020, dated 2026).
Where two headings read alike, the source gives them in different places. Marks after values point to notes of the source that are not given here.

Assays:
[1] = format: physicochemical; settings: for pKa,ZP: LNP containing the ionizable lipid, Henderson Hasselbalch fit to zeta potential; for pI, ZP: LNP isoelectric pI from zeta potential
Description: (§1) • A: Ribogreen Assay for mRNA Encapsulation Efficiency. 1×TE Buffer and Triton Buffer (2% v/v in 1×TE Buffer) were added in duplicates into a black microplate per LNP. LNPs were diluted to 4 ng/ul in 1×DPBS pH 7.4 and added to each TE/Triton well in a ratio 1:1. Two standard curves were included in the Ribogreen Assay, one containing mRNA and 1×TE Buffer and other containing mRNA and Triton Buffer. Each one of these standard curves were used to calculate the mRNA concentration in each TE Buffer or Triton Buffer. This approach using two standard curves is more accurate for calculating the encapsulation efficiency and mRNA concentrations, in comparison to a single standard curve. Standards were included in the microplate after diluted LNPs were added to the plate. Microplates were incubated at 37° C. for 10 minutes to extract LNPs with Triton. Ribogreen reagent was diluted 1:100 in 1×TE Buffer and added to each well in a ratio 1:1. Microplates were immediately introduced into the Cytation 5 Cell Imaging Multi-Mode Reader (Biotek) to read Fluorescence (Ex485/Em528). The results are illustrated in FIG. 34. • B: Dynamic Light Scattering for LNP Size (red dots are PDI right y axis). LNPs were diluted to 6.25 ng/ul in 1×DPBS pH 7.4 and transferred into a quartz cuvette (ZEN2112) to measure size by Dynamic Light Scattering (DLS) in the Zetasizer Nano ZS (Malvern Panalytical) using particle RI of 1.45 and Absorption of 0.001 in 1×PBS at 25° C. with viscosity of 1.02 cP and RI of 1.335. Measurements were made using a 173° Backscatter angle of detection previously equilibrated to 25° C. for 30 seconds in duplicates, each with 5 runs and 10 second run duration, without delay between measurements. […] Data was analyzed using a General-Purpose model with normal resolution. The results are illustrated in FIG. 35. • C: Zeta Potential for LNP charge, pKa and pI. LNPs were diluted in a 75 mM TNS Buffer (10 mM of each of glycylglycine, acetate, imidazole, 20 mM borate, 25 mM NaCl) to contain 0.8 mg of total mRNA in 800 ul of the TNS Buffer and transferred into a Folded Capillary Zeta Cell (DTS1070) to measure size by Dynamic Light Scattering (DLS) and electrophoretic mobility by Electrophoretic Light Scattering (ELS) in the Zetasizer Nano ZS (Malvern Panalytical). Zeta potential is measured under conditions of controlled voltage to limit ohmic heating in a solution with 4 buffers with pKas spread across the pH range 3-10 with 0.5 intervals. LNP pKa is calculated by fitting the Henderson Hasselbalch equation to zeta potential data. LNP pI is found by interpolating zeta potential to zero. We use electrokinetic models to calculate Henry's function and charge of the LNP. The results are illustrated in FIG. 36. • D: TNS Assay for LNP pKa. LNPs were diluted to keep a final concentration of 75 uM of the ionizable lipid and 6 uM of TNS in a 75 mM TNS Buffer (10 mM of each of glycylglycine, acetate, imidazole, 20 mM borate, 25 mM NaCl) in order to keep a ratio TNS/ionizable of 0.08. Fluorescence TNS is measured in a solution with 4 buffers with pKas spread across the pH range 3-10 with 0.5 intervals. The pKa of the LNP was measured using the pH-dependence of fluorescence enhancement of the anionic dye TNS, higher intensity at lower pH and lower at high pH. LNP pKa is calculated by fitting the Henderson Hasselbalch equation to fluorescence data from the TNS Assay. The results are illustrated in FIG. 37.
LNPs were diluted to 6.25 ng/μL total mRNA in PBS pH=7.4 and transferred into a quartz cuvette (ZEN2112) to measure size by Dynamic Light Scattering (DLS) in the Zetasizer Nano ZS (Malvern Panalytical) using particle RI of 1.45 and absorption of 0.001 in PBS at 25° C. with viscosity of 0.888 cP and RI of 1.335. Measurements were made using a 1730 backscatter angle of detection previously equilibrated to 25° C. for 30 seconds in duplicates, each with 5 runs and 10 second run duration, without delay between measurements. […]

[2] = format: physicochemical; settings: LNP containing the ionizable lipid
Description: as §1, with “LNPs were diluted to keep a final concentration of 75 uM of the ionizable lipid and 6 uM of TNS in a 75 mM TNS Buffer (10 mM of each of glycylglycine, acetate, imidazole, 20 mM borate, 25 mM NaCl) in order to keep a ratio TNS/ionizable of 0.08.” left out, “The results are illustrated in FIG. 37.” left out
LNP pKa was determined using the TNS assay. […] The Cytation 5 Cell Imaging Multi-Mode Reader (Biotek) was used to read Fluorescence (Ex321/Em445). The pH was measured in each well after TNS addition. […]

[3] = Dynamic Light Scattering for LNP size; format: physicochemical; settings: number-average from DLS
Description: as §1, with “37. […]” for “37.”

[4] = mRNA copies per LNP from molecular volume model and DLS diameter; format: physicochemical; settings: average mRNA copies per LNP
Description: Exemplary ADDE ionizable lipids. pKas were obtained from ACDLabs Percepta for the ionizable lipid, and by zeta potential and TNS for LNPs containing the ionizable lipids. LNP isoelectric pI was obtained from the zeta potential. LNP diameter is number-average from DLS. Average mRNA copies per LNP was calculated using a molecular volume model and the DLS diameter and is proportional to LNP volume.
LNPs were diluted to 6.25 ng/μL total mRNA in PBS pH=7.4 and transferred into a quartz cuvette (ZEN2112) to measure size by Dynamic Light Scattering (DLS) in the Zetasizer Nano ZS (Malvern Panalytical) using particle RI of 1.45 and absorption of 0.001 in PBS at 25° C. with viscosity of 0.888 cP and RI of 1.335. Measurements were made using a 1730 backscatter angle of detection previously equilibrated to 25° C. for 30 seconds in duplicates, each with 5 runs and 10 second run duration, without delay between measurements. […] Data was analyzed using a General-Purpose model with normal resolution. Diameter are reported as the number-average that corresponds more closely to physical size seen in electron microscopy versus the zeta-average. A molecular volume model described previously was used to estimate the number of mRNA copies in the LNP using the number average diameter to calculate LNP volume. LNPs were diluted into the TNS buffer described above at pH ranging from 3-10 for zeta potential measurement by Electrophoretic Light Scattering (ELS) in the Zetasizer Nano ZP (Malvern Panalytical) using the same material and dispersant parameters described above and the Smoluchowski model. Each measurement had voltage set manually at 80 Volts to avoid ohmic heating that occurred if voltage was set automatically. Measurements in the disposable folded capillary cuvette with an automatic attenuation selection for photon counts were made in triplicates for 20 runs each, and 30 second delay between each replicate. Mathematica was used to fit zeta potential data to the data to the extended Henderson-Hasselbalch equation Ψ=Ψ_max−((Ψ_max−Ψ_min))/((1+10^(((pKa−pH))/n))) to provide the pKa, n and low pH and high pH zeta potential limits Ψ_max and Ψ_min, respectively. The extended model is used here, since the LNP pKa is ionization-state-dependent in a way similar to a polyelectrolyte. […] The isoelectric pI was the pH found by interpolating zeta potential to zero. Cryoelectron Microscopy

[5] = format: physicochemical; settings: Table 11a
Description: In certain embodiments, the pKa of the Ionizable Lipids of the Invention included in the LNP is measured by fluorescent enhancement of an anionic lipophilic dye TNS binding to the LNP containing the ionizable lipid. Prior studies have shown that the TNS pKa needs to be near 6.5 for efficient delivery to liver upon IV administration. The pKa in the aqueous phase can be predicted by software such ACDLabs Percepta, resulting in pKas that are higher than the TNS pKa. Given the importance of the LNP pKa in determining their efficiency, we developed new methods (zeta potential, ^1H NMR, modeling) to link the intrinsic pKa of the ionizable lipid to LNP ionization properties, in order to rationally design effective systems for mRNA delivery.
In certain embodiments, the hydrophilic DMG-PEG forms the shell of the LNP. The amount of nucleic acid is represented by the NP mole ratio of the amine on the ionizable lipid to the phosphate groups on the nucleic acid backbone and is typically 3-6. In certain embodiments, the pKa of the LNP to be in the 6-7 range corresponding to the pH in the early endosome. […] The pKa of the LNP was measured using the pH-dependence of fluorescence enhancement of the anionic dye TNS. In certain embodiments, the pKa-dependent endosomal release mechanism was described as an ion-pairing event between the cationic protonated ionizable lipid and anionic endosomal phospholipids where a divergent cone-shape lipid tail of the ionizable lipid facilitates membrane rupture.

[6] = Table 11a; known ionizable lipids, LNP pKa; cited from earlier work
physchem = format: physicochemical; settings: for pKa: water soluble analogue
Description: The pH-dependence of proton NMR chemical shifts was used to measure the pKa's of the ionizable lipid water-soluble analogues (WSA) following published methods5,6. Chemical shifts of piperazine, imidazole, 2-chloroacetic acid and acetic acid were used as internal pH indicators. Solutions for MC3-WSA were prepared with 100 mM KCl, 2 mM piperazine, 2 mM imidazole, and 5 mM water soluble ionizable lipid analogue in 95% H2O-5% D2O. Solutions for the terminal(N1) and aza amines(N2) at the p-position of carboxylic esters of C24-WSA were prepared with 100 mM KCl, 2 mM piperazine, 2 mM imidazole, 0.2 mM DSS, and 5 mM water soluble ionizable lipid analogue in 95% H2O-5% D2O. Solutions for the internal amine (N3) of C24-WSA were prepared with 100 mM KCl, 2 mM chloroacetic acid, 2 mM acetic acid, 0.2 mM DSS, and 5 mM water soluble ionizable lipid analogue in 95% H2O-5% D2O. Solutions were split into two equal volumes and one titrated to a lower pH using 0.1 M HCl and the other to an upper pH using 0.1 M NaOH where the lower and upper pH bracketed the desired range of pH. Intermediate pH values were obtained by mixing different proportions of these two solutions. NMR measurements were performed on a Bruker 400 MHz spectrometer where 1H spectra were acquired at each of ˜24 pH values ranging from the lower to upper pH. […] Chemical shifts from piperazine, imidazole, 2-chloroacetic acid, and acetic acid were then used to calculate the pH of each solution according to published methods5,6 and the chemical shifts of protons adjacent to each nitrogen in the ionizable lipid water sluble analogue headgroup were fit to the Henderson-Hasselbalch equation to provide the pKa of each Nitrogen. Spectra are in Supplementary FIG. 2.

SMILES	pKa,ZP [1]	pI, ZP [1]	pKa, TNS [2]	Diameter (nm) [3] [nm]	mRNA copies [4]	ΔpKa = Classic-Galas [5]	ΔpKa = Classic-TNS [5]	pKa, TNS [6]	also measured
CCCCC/C=C\C/C=C\CCCCCCCCOC(=O)CCN(CCC(=O)OCCCCCCCC/C=C\C/C=C\CCCCC)CCN1CCCC1 (racemic) [DL-C2/C2-Pyr]	6.8	7.2	7.9	48	1.5	–	–	–	–
CCCCCCCCCCOC(=O)CCCCCN(CCO)CCCCCCCC(=O)OC(CCCCCCCC)CCCCCCCC [Moderna Lipid H]	–	–	–	–	–	3.12	2.22	6.68	–
CCCCCCCCCCC(CCCCCCCC)COC(=O)CCN(CCCCN1CCN(C)CC1)CCC(=O)OCC(CCCCCCCC)CCCCCCCCCC (centres unmarked) [BODD-C2/C4-PipZ]	4.9*	5.8	7.0	55	3.3	–	–	–	–
CCCCCCCCCCC(CCCCCCCC)COC(=O)CCN(CCC(=O)OCC(CCCCCCCC)CCCCCCCCCC)CCN1CCN(C)CC1 (centres unmarked) [BODD-C2/C2-PipZ]	5.4	5.9	6.6	49	1.9	–	–	–	–
CCCCC/C=C\C/C=C\CCCCCCCCC(CCCCCCCC/C=C\C/C=C\CCCCC)OC(=O)CCCN(C)C [MC3]	–	–	–	–	–	2.66	2.96	6.44	–
CCCCCCCC/C=C\CCCCCCCC(=O)OCC(CN(C)C)OC(=O)CCCCCCC/C=C\CCCCCCCC (centres unmarked) [DODAP, 1,2-dioleoyl-3-dimethylammonium propane]	–	–	–	–	–	1.8	2.2	5.8	–
CCCCC/C=C\C/C=C\CCCCCCCCOC(=O)CCN(CCC(=O)OCCCCCCCC/C=C\C/C=C\CCCCC)CCN1CCN(C)CC1 (racemic) [DL-C2/C2-PipZ]	6.2	7.6	7.8	64	4.3	–	–	–	–
CCCCC/C=C\C/C=C\CCCCCCCCOC(=O)CCN(CCC(=O)OCCCCCCCC/C=C\C/C=C\CCCCC)CCN(C)C (racemic) [DL-C2/C2-DMA]	6.9	7.1	8.0	40	1.1	–	–	–	–
CCCCCCCC(=O)N(CCCN1CCCC1)C(CCCCCCCCC(=O)OC(CCCC)CCCCCC)CCCCCCCCC(=O)OC(CCCC)CCCCCC (centres unmarked) [Acuitas Compound 15]	–	–	–	–	–	3.38	3.98	6.32	–
CN1CCN(CCCCN(CCC(=O)OC(C)(C)C)CCC(=O)OC(C)(C)C)CC1 [Lipid C24-WSA]	–	–	–	–	–	–	–	–	difference between NMR-measured and theoretical pKas (physchem): ≤ 0.4 units; pKa (physchem; read-out: pKa by 1H NMR, central nitrogen): 3.7; pKa (physchem; read-out: pKa by 1H NMR, nitrogen closest to the linker): 7.5; pKa (physchem; read-out: pKa by 1H NMR, terminal nitrogen): 8.1
